Source: ChEMBL document CHEMBL2151008, “Enhanced ROS production and cell death through combined photo- and sono-activation of conventional photosensitising drugs” (2011)
Active and inactive are the calls of the source. No cut-off for these calls is given here.

Legend:
[1] = ROS-generating activity of the photo/sono-irradiated compound assessed as singlet oxygen generation measuring reduction in absorbance at 410 nm at 5 uM by DPBF oxidation method; parameters: scale not given: the % may be the effect or the level left
[2] = ROS-generating activity of the photo-irradiated compound assessed as singlet oxygen generation measuring reduction in absorbance at 410 nm at 5 uM by DPBF oxidation method; parameters: scale not given: the % may be the effect or the level left
CHO [3] = test: Cytotoxicity against CHO cells assessed as cell death at 0.1 to 100 uM after 3 hrs followed by sono-irradiation for 30 secs measured 24 hrs post irradiation by MTT assay; format: functional, cell-based; settings: Cricetulus griseus
CHO [4] = test: Cytotoxicity against CHO cells assessed as cell death at 0.1 to 100 uM after 3 hrs followed by photo/sono-irradiation for 30 secs measured 24 hrs post irradiation by MTT assay; format: functional, cell-based; settings: Cricetulus griseus
CHO [5] = test: Cytotoxicity against CHO cells assessed as cell death at 0.1 to 100 uM after 3 hrs followed by photo-irradiation for 30 secs measured 24 hrs post irradiation by MTT assay; format: functional, cell-based; settings: Cricetulus griseus
[6] = ROS-generating activity of the sono-irradiated compound assessed as singlet oxygen generation measuring reduction in absorbance at 410 nm at 5 uM by DPBF oxidation method; parameters: scale not given: the % may be the effect or the level left
CHO [7] = test: Cytotoxicity against CHO cells assessed as cell death at 100 uM after 3 hrs followed by photo/sono-irradiation for 30 secs measured 24 hrs post irradiation by MTT assay relative to sono-irradiated cells; format: functional, Cricetulus griseus
CHO [8] = test: Cytotoxicity against CHO cells assessed as cell viability at 100 uM after 3 hrs by MTT assay; format: functional; settings: Cricetulus griseus, read-out: Activity
CHO [9] = test: Cytotoxicity against CHO cells assessed as cell death at 100 uM after 3 hrs followed by photo/sono-irradiation for 30 secs measured 24 hrs post irradiation by MTT assay relative to photo-irradiated cells; format: functional, Cricetulus griseus
CHO [10] = test: Cytotoxicity against CHO cells after 3 hrs followed by photo-irradiation for 30 secs measured 24 hrs post irradiation by MTT assay; format: functional, Cricetulus griseus
CHO [11] = test: Cytotoxicity against CHO cells assessed as cell death at 100 uM after 3 hrs followed by photo-irradiation for 30 secs measured 24 hrs post irradiation by MTT assay; format: functional, Cricetulus griseus
CHO [12] = test: Cytotoxicity against CHO cells assessed as cell death at 100 uM after 3 hrs followed by photo/sono-irradiation for 30 secs measured 24 hrs post irradiation by MTT assay; format: functional, Cricetulus griseus
CHO [13] = test: Cytotoxicity against CHO cells assessed as cell death at 100 uM after 3 hrs followed by sono-irradiation for 30 secs measured 24 hrs post irradiation by MTT assay; format: functional, Cricetulus griseus
CHO [14] = test: Cytotoxicity against CHO cells after 3 hrs by MTT assay; format: functional, Cricetulus griseus
CHO [15] = test: Cytotoxicity against CHO cells after 3 hrs followed by sono-irradiation for 30 secs measured 24 hrs post irradiation by MTT assay; format: functional, Cricetulus griseus
CHO [16] = test: Cytotoxicity against CHO cells after 3 hrs followed by photo/sono-irradiation for 30 secs measured 24 hrs post irradiation by MTT assay; format: functional, Cricetulus griseus

| Structure (SMILES) | Activity [1] | Activity [2] | Activity (CHO [3]) | Activity (CHO [4]) | Activity (CHO [5]) | Activity [6] | Activity (CHO [7]) | viability at 100 µM (CHO [8]) | fold change (FC) (CHO [9]) | LD50 (CHO [10]) | Activity (CHO [11]) | Activity (CHO [12]) | Activity (CHO [13]) | LD50 (CHO [14]) | LD50 (CHO [15]) | LD50 (CHO [16]) |
| --- | --- | --- | --- | --- | --- | --- | --- | --- | --- | --- | --- | --- | --- | --- | --- | --- |
| CN(C)c1ccc2nc3ccc(=[N+](C)C)cc-3sc2c1 | 71.8% | 38.8% | Active | Active | Active | 40.1% | – | – | – | – | – | – | – | – | – | – |
| CN(C)c1ccc2nc3ccc(N(C)C)cc3[s+]c2c1.[Cl-] [METHYLENE BLUE ANHYDROUS] | – | – | – | – | – | – | 43% | 80% | 2 | – | – | – | – | – | – | – |
| O=C([O-])c1c(Cl)c(Cl)c(Cl)c(Cl)c1-c1c2cc(I)c(=O)c(I)c-2oc2c(I)c([O-])c(I)cc12.[Na+].[Na+] [ROSE BENGAL SODIUM] | 74.9% | 44.7% | – | – | – | 58.4% | – | 65% | – | 3.3 µmol | 95% | 95% | 95% | 138.4 µmol | 38.5 µmol | 2 µmol |
